Test results: patent US20220322673A1, “Novel Agrochemical Combinations” (UPL LIMITED, priority 2019, published 2022)
Read-outs that look alike come from different tables or passages of the source.

Assays:
Assay type in all cases: in vivo
[1] = test system: Corn FAW (Spodoptera frugiperda); conditions: for Percent control (%) A01: A01 = 1 day after first spray; for Percent control (%) A14: A14 = 14 days after 1st spray; for Percent control (%) B03: B03 = 3 days after 2nd spray; for Percent control (%) B07: B07 (after 2nd spray); for Percent control (%) B10: B10 (after 2nd spray); for Percent control (%) B21: B21 (after 2nd spray)
Text: Application method: Two applications (application A and B) within an interval of 14 days. A01=1 day after first spray, A14=14 days after 1st spray, B03=3 days after 2nd spray.

[2] = test system: Okra Aphids (Aphis gossypii); conditions: for Percent control (%) of Okra Aphids, Nymphs + Adults, A01: A01 = 1 day after first spray; for Percent control (%) of Okra Aphids, Nymphs + Adults, B03: B03 = 3 days after 2nd spray; for Percent control (%) of Okra Aphids, Nymphs + Adults, B07: B07 (after 2nd spray); for Percent control (%) of Okra Aphids, Nymphs + Adults, B10: B10 (after 2nd spray); for Percent control (%) of Okra Aphids, Nymphs + Adults, C03: C03 = 3 days after third spray; for Percent control (%) of Okra Aphids, Nymphs + Adults, C10: C10 (after third spray)
Text: (§1) In this evaluation, feeding damage & insect population on Okra Leaves before and after sprays is averaged and analyzed for the test of significance. Application method: Three applications (application A, B and C) within an interval of 14 days.

[3] = test system: Okra Jassids (Amrasca bigutulla bigutulla); conditions: for Percent control (%) of Okra Jassids, Nymphs + Adults, A01: A01 = 1 day after first spray; for Percent control (%) of Okra Jassids, Nymphs + Adults, A10: A10 (after 1st spray); for Percent control (%) of Okra Jassids, Nymphs + Adults, B03: B03 = 3 days after 2nd spray; for Percent control (%) of Okra Jassids, Nymphs + Adults, B07: B07 (after 2nd spray); for Percent control (%) of Okra Jassids, Nymphs + Adults, B10: B10 (after 2nd spray); for Percent control (%) of Okra Jassids, Nymphs + Adults, B14: B14 (after 2nd spray); for Percent control (%) of Okra Jassids, Nymphs + Adults, C03: C03 = 3 days after third spray; for Percent control (%) of Okra Jassids, Nymphs + Adults, C10: C10 (after third spray)
Text: as §1

[4] = 25% reduced dose of insecticide, gm a.i./ha: OSA 25, CTPR 22.5, Acephate 730, Novaluron 56, Novaluron+Lambda cyhalothrin 67.5, Novaluron+Emamectin 93.5
[5] = doses gm a.i./ha: OSA 25, CTPR 30, Acephate 970, Novaluron 75, Novaluron+Lambda cyhalothrin 90, Novaluron+Emamectin 125
[6] = doses gm a.i./ha: OSA 25, Flonicamid 100, Acephate+Imidacloprid 520, Flonicamid+Fipronil 100+50, Imidacloprid 24.5, Acetamiprid 15
[7] = reduced insecticide dose, gm a.i./ha: OSA 25, Flonicamid (Ulala) 75, Acephate+Imidacloprid 390, Flonicamid+Fipronil 75+37.5, Imidacloprid 18.3, Acetamiprid 11.2
[8] = 25% reduced dose rate, gm a.i./ha: OSA 25, Flonicamid 75, Acephate+Imidacloprid 390, Flonicamid+Fipronil 75+37.5, Imidacloprid 18.3, Acetamiprid 11.2

O=C(NC(=O)c1c(F)cccc1F)Nc1ccc(OC(F)(F)C(F)OC(F)(F)F)c(Cl)c1 (racemic) [Novaluron, (±)-1-[3-chloro-4-(1,1,2-trifluoro-2-trifluoro-methoxyethoxy)phenyl]-3-(2,6-difluorobenzoyl)urea]
Percent control (%) A01 [1, 4]: 59.3% | Percent control (%) A01 [1, 5]: 60.5% | Percent control (%) A14 [1, 4]: 58.7% | Percent control (%) A14 [1, 5]: 72.5% | Percent control (%) B03 [1, 4]: 68.9% | Percent control (%) B03 [1, 5]: 79.9% | Percent control (%) B07 [1, 4]: 70.1% | Percent control (%) B07 [1, 5]: 88.8% | Percent control (%) B10 [1, 4]: 74.6% | Percent control (%) B10 [1, 5]: 88.9% | Percent control (%) B21 [1, 4]: 73.9% | Percent control (%) B21 [1, 5]: 84.7%

CNC(=O)c1cc(Cl)cc(C)c1NC(=O)c1cc(Br)nn1-c1ncccc1Cl [CTPR, Chlorantraniliprole]
Percent control (%) A01 [1, 4]: 57.1% | Percent control (%) A01 [1, 5]: 67.6% | Percent control (%) A14 [1, 4]: 66.8% | Percent control (%) A14 [1, 5]: 75.2% | Percent control (%) B03 [1, 4]: 75% | Percent control (%) B03 [1, 5]: 79.9% | Percent control (%) B07 [1, 4]: 77.2% | Percent control (%) B07 [1, 5]: 86.8% | Percent control (%) B10 [1, 4]: 76.2% | Percent control (%) B10 [1, 5]: 88.9% | Percent control (%) B21 [1, 4]: 74.6% | Percent control (%) B21 [1, 5]: 87.0%

COP(=O)(NC(C)=O)SC (stereo not drawn) [Acephate]
Percent control (%) A01 [1, 4]: 46.8% | Percent control (%) A01 [1, 5]: 58.1% | Percent control (%) A14 [1, 4]: 50.3% | Percent control (%) A14 [1, 5]: 69.7% | Percent control (%) B03 [1, 4]: 62.1% | Percent control (%) B03 [1, 5]: 76.4% | Percent control (%) B07 [1, 4]: 63.9% | Percent control (%) B07 [1, 5]: 80.5% | Percent control (%) B10 [1, 4]: 64.1% | Percent control (%) B10 [1, 5]: 83.2% | Percent control (%) B21 [1, 4]: 61.6% | Percent control (%) B21 [1, 5]: 80.3%

O=[N+]([O-])NC1=NCCN1Cc1ccc(Cl)nc1 [Imidacloprid]
Percent control (%) of Okra Aphids, Nymphs + Adults, A01 [2, 6]: 66.9% | Percent control (%) of Okra Aphids, Nymphs + Adults, A01 [2, 7]: 62.7% | Percent control (%) of Okra Aphids, Nymphs + Adults, A10 ([2]; A10 (after 1st spray), doses gm a.i./ha: OSA 25, Flonicamid 100, Acephate+Imidacloprid 520, Flonicamid+Fipronil 100+50, Imidacloprid 24.5, Acetamiprid 15): 82% | Percent control (%) of Okra Aphids, Nymphs + Adults, A14 ([2]; A14 = 14 days after 1st spray, reduced insecticide dose, gm a.i./ha: OSA 25, Flonicamid (Ulala) 75, Acephate+Imidacloprid 390, Flonicamid+Fipronil 75+37.5, Imidacloprid 18.3, Acetamiprid 11.2): 64.3% | Percent control (%) of Okra Aphids, Nymphs + Adults, B03 [2, 6]: 80.7% | Percent control (%) of Okra Aphids, Nymphs + Adults, B03 [2, 7]: 74.4% | Percent control (%) of Okra Aphids, Nymphs + Adults, B07 [2, 6]: 82.7% | Percent control (%) of Okra Aphids, Nymphs + Adults, B07 [2, 7]: 77.2% | Percent control (%) of Okra Aphids, Nymphs + Adults, B10 [2, 6]: 82.2% | Percent control (%) of Okra Aphids, Nymphs + Adults, B10 [2, 7]: 79.1% | Percent control (%) of Okra Aphids, Nymphs + Adults, C03 [2, 6]: 81.3% | Percent control (%) of Okra Aphids, Nymphs + Adults, C03 [2, 7]: 75.4% | Percent control (%) of Okra Aphids, Nymphs + Adults, C10 [2, 6]: 82.6% | Percent control (%) of Okra Aphids, Nymphs + Adults, C10 [2, 7]: 78% | Percent control (%) of Okra Jassids, Nymphs + Adults, A01 [3, 8]: 56% | Percent control (%) of Okra Jassids, Nymphs + Adults, A01 [3, 6]: 59.9% | Percent control (%) of Okra Jassids, Nymphs + Adults, A10 [3, 8]: 59.1% | Percent control (%) of Okra Jassids, Nymphs + Adults, A10 [3, 6]: 64.6% | Percent control (%) of Okra Jassids, Nymphs + Adults, B03 [3, 8]: 61.5% | Percent control (%) of Okra Jassids, Nymphs + Adults, B03 [3, 6]: 68.5% | Percent control (%) of Okra Jassids, Nymphs + Adults, B07 [3, 8]: 62.5% | Percent control (%) of Okra Jassids, Nymphs + Adults, B07 [3, 6]: 71.7% | Percent control (%) of Okra Jassids, Nymphs + Adults, B10 [3, 8]: 63.5% | Percent control (%) of Okra Jassids, Nymphs + Adults, B10 [3, 6]: 70.5% | Percent control (%) of Okra Jassids, Nymphs + Adults, B14 [3, 8]: 62.4% | Percent control (%) of Okra Jassids, Nymphs + Adults, B14 [3, 6]: 66.2% | Percent control (%) of Okra Jassids, Nymphs + Adults, C03 [3, 8]: 64.6% | Percent control (%) of Okra Jassids, Nymphs + Adults, C03 [3, 6]: 68.0% | Percent control (%) of Okra Jassids, Nymphs + Adults, C10 [3, 8]: 66.1% | Percent control (%) of Okra Jassids, Nymphs + Adults, C10 [3, 6]: 73.0%
